Measured values reported in PubChem BioAssay AID248 (DTP/NCI, 2004).
“And” between values parts separate entries of the source, which are not always exact repeats. Equal entries are not always repeated. Toxic doses and inconclusive results are not listed.

Tested on: L1210 leukemia ip in BDF1 mice, survival T/C
Assay: NCI In Vivo Anticancer Drug Screen. Data for tumor model L1210 Leukemia (intraperitoneal) in B6D2F1 (BDF1) mice
Details: endpoint: mean survival time, higher = longer survival
Procedure, shortened: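 Transplanted-tumor mice were given test agent; controls received vehicle only. Survival readings from the two groups were divided (treated over control).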

[1] = dose: 50.0 mg/kg/injection, schedule: Q01DX001 (ip), vehicle: saline
[2] = dose: 100.0 mg/kg/injection, schedule: Q01DX001 (ip), vehicle: other
[3] = dose: 100.0 mg/kg/injection, schedule: Q01DX001 (ip), vehicle: saline
[4] = dose: 200.0 mg/kg/injection, schedule: Q01DX001 (ip), vehicle: other
[5] = dose: 400.0 mg/kg/injection, schedule: Q01DX001 (ip), vehicle: other
[6] = dose: 100.0 mg/kg/injection, schedule: Q01DX009 (ip), vehicle: Klucel (hydroxypropylcellulose) (HPC)
[7] = dose: 100.0 mg/kg/injection, schedule: Q04DX003 (ip), vehicle: Klucel (hydroxypropylcellulose) (HPC)
[8] = dose: 200.0 mg/kg/injection, schedule: Q04DX003 (ip), vehicle: Klucel (hydroxypropylcellulose) (HPC)
[9] = dose: 100.0 mg/kg/injection, schedule: Q04DX002 (ip), vehicle: saline with Tween-80
[10] = dose: 200.0 mg/kg/injection, schedule: Q04DX002 (ip), vehicle: saline with Tween-80
[11] = dose: 400.0 mg/kg/injection, schedule: Q04DX002 (ip), vehicle: saline with Tween-80
[12] = dose: 100.0 mg/kg/injection, schedule: Q04DX003 (ip), vehicle: saline with Tween-80
[13] = dose: 200.0 mg/kg/injection, schedule: Q04DX003 (ip), vehicle: saline with Tween-80
[14] = dose: 400.0 mg/kg/injection, schedule: Q04DX003 (ip), vehicle: saline with Tween-80
[15] = dose: 100.0 mg/kg/injection, schedule: Q04DX003 (ip), vehicle: saline
[16] = dose: 50.0 mg/kg/injection, schedule: Q01DX009 (ip), vehicle: Klucel (hydroxypropylcellulose) (HPC)

Structure (SMILES): Nc1nc(N)c2cc(CNc3ccc(C(=O)NC(CC(=O)O)CC(=O)O)cc3)ccc2n1
- T/C (dose: 6.25 mg/kg/injection, schedule: Q01DX009 (ip), vehicle: saline): 123 % of control
- T/C (dose: 6.3 mg/kg/injection, schedule: Q01DX009 (ip), vehicle: carboxymethylcellulose (CMC)): 167 % of control
- T/C (dose: 10.0 mg/kg/injection, schedule: Q01DX009 (ip), vehicle: other): 157 % of control
- T/C (dose: 12.5 mg/kg/injection, schedule: Q01DX009 (ip), vehicle: carboxymethylcellulose (CMC)): 152 % of control
- T/C (dose: 25.0 mg/kg/injection, schedule: Q01DX009 (ip), vehicle: carboxymethylcellulose (CMC)): 180 % of control
- T/C (dose: 25.0 mg/kg/injection, schedule: Q01DX009 (ip), vehicle: other): 158 % of control
- T/C [1]: 109 % of control
- T/C (dose: 50.0 mg/kg/injection, schedule: Q01DX009 (ip), vehicle: carboxymethylcellulose (CMC)): 117 % of control
- T/C (dose: 50.0 mg/kg/injection, schedule: Q01DX009 (ip), vehicle: saline): 216 % of control
- T/C [2]: 196 % of control
- T/C [3]: 114 % of control
- T/C (dose: 100.0 mg/kg/injection, schedule: Q01DX009 (ip), vehicle: carboxymethylcellulose (CMC)): 105 % of control
- T/C (dose: 100.0 mg/kg/injection, schedule: Q01DX009 (ip), vehicle: other): 101 % of control
- T/C (dose: 100.0 mg/kg/injection, schedule: Q01DX009 (ip), vehicle: saline): 103 % of control
- T/C (dose: 133.0 mg/kg/injection, schedule: Q01DX001 (ip), vehicle: other): 175 % of control
- T/C [4]: 208 % of control
- T/C (dose: 200.0 mg/kg/injection, schedule: Q01DX009 (ip), vehicle: carboxymethylcellulose (CMC)): 88 % of control
- T/C (dose: 200.0 mg/kg/injection, schedule: Q01DX009 (ip), vehicle: other): 86 % of control
- T/C (dose: 200.0 mg/kg/injection, schedule: Q01DX009 (ip), vehicle: saline): 97 % of control
- T/C (dose: 300.0 mg/kg/injection, schedule: Q01DX001 (ip), vehicle: other): 166 % of control
- T/C (dose: 300.0 mg/kg/injection, schedule: Q01DX001 (ip), vehicle: saline): 122 % of control
- T/C [5]: 107 % of control
- T/C (dose: 600.0 mg/kg/injection, schedule: Q01DX001 (ip), vehicle: saline): 152 % of control

Structure (SMILES): Cc1c(C)c(CN)c(C)c(C)c1CN
- T/C [6]: 91 % of control
- T/C [7]: 103 % of control
- T/C (dose: 200.0 mg/kg/injection, schedule: Q01DX009 (ip), vehicle: Klucel (hydroxypropylcellulose) (HPC)): 100 % of control
- T/C [8]: 98 % of control

Structure (SMILES): O=c1oc(-c2cccc([N+](=O)[O-])c2)nc2cc(Cl)ccc12
- T/C (dose: 50.0 mg/kg/injection, schedule: Q04DX002 (ip), vehicle: saline with Tween-80): 90 % of control
- T/C [9]: 93 % of control
- T/C [10]: 93 % of control
- T/C [11]: 107 % of control

Structure (SMILES): COc1ccc(C(=O)NS(=O)(=O)c2ccc(Cl)cc2)cc1
- T/C [12]: 107 % of control
- T/C [13]: 91 % of control
- T/C [14]: 114 % of control

Structure (SMILES): CC(C)/C=N/NC(=O)CCCCCCCCC(=O)N/N=C/C(C)C
- T/C (dose: 100.0 mg/kg/injection, schedule: Q01DX001 (ip), vehicle: saline with Tween-80): 97 % of control
- T/C (dose: 100.0 mg/kg/injection, schedule: Q01DX009 (ip), vehicle: saline with Tween-80): 105 % of control and 106 % of control
- T/C [9]: 97 % of control
- T/C [12]: 111 % of control
- T/C (dose: 200.0 mg/kg/injection, schedule: Q01DX001 (ip), vehicle: saline with Tween-80): 92 % of control
- T/C (dose: 200.0 mg/kg/injection, schedule: Q01DX009 (ip), vehicle: saline with Tween-80): 100 % of control and 108 % of control
- T/C [10]: 97 % of control
- T/C [13]: 110 % of control
- T/C (dose: 400.0 mg/kg/injection, schedule: Q01DX001 (ip), vehicle: saline with Tween-80): 97 % of control
- T/C (dose: 400.0 mg/kg/injection, schedule: Q01DX009 (ip), vehicle: saline with Tween-80): 93 % of control and 108 % of control
- T/C [11]: 94 % of control and 95 % of control
- T/C [14]: 101 % of control

Structure (SMILES): CC(=O)Nc1ccc(C=NCCN=Cc2ccc(NC(C)=O)cc2)cc1
- T/C [7]: 97 % of control
- T/C [8]: 88 % of control
- T/C (dose: 400.0 mg/kg/injection, schedule: Q04DX003 (ip), vehicle: Klucel (hydroxypropylcellulose) (HPC)): 88 % of control

Structure (SMILES): C(=N\n1cnnc1)/c1ccc2c(c1)CCC2
- T/C [12]: 94 % of control
- T/C [13]: 112 % of control
- T/C [14]: 98 % of control

Structure (SMILES): O=[N+]([O-])c1cccc(/C=C/C=C/c2c(Cl)cccc2Cl)c1
- T/C [3]: 91 % of control
- T/C (dose: 200.0 mg/kg/injection, schedule: Q01DX001 (ip), vehicle: saline): 94 % of control
- T/C (dose: 400.0 mg/kg/injection, schedule: Q01DX001 (ip), vehicle: saline): 100 % of control

Structure (SMILES): CN1CCC(C[CH2][Sn]([c]2ccccc2)([c]2ccccc2)[c]2ccccc2)CC1
- T/C (dose: 25.0 mg/kg/injection, schedule: Q04DX002 (ip), vehicle: saline with Tween-80): 100 % of control

Structure (SMILES): Cc1cc(C)c(-c2c(C)cc(C)cc2[N+](=O)[O-])c([N+](=O)[O-])c1
- T/C [15]: 93 % of control
- T/C (dose: 200.0 mg/kg/injection, schedule: Q04DX003 (ip), vehicle: saline): 96 % of control
- T/C (dose: 400.0 mg/kg/injection, schedule: Q04DX003 (ip), vehicle: saline): 86 % of control

Structure (SMILES): Nc1ncnc2c1c(-c1nc(=S)[nH][nH]1)cn2C1OC(CO)C(O)C1O (centres undefined)
- T/C (dose: 100.0 mg/kg/injection, schedule: Q01DX005 (ip), vehicle: saline): 106 % of control
- T/C (dose: 200.0 mg/kg/injection, schedule: Q01DX005 (ip), vehicle: saline): 108 % of control

Structure (SMILES): CCc1ccc(C(=O)c2ccccc2)c2c1C(=O)c1ccccc1C2=O
- T/C [9]: 91 % of control
- T/C [10]: 88 % of control
- T/C [11]: 102 % of control

Structure (SMILES): CN(C)C1CCc2c(ccc3ccccc23)C1=O (centres undefined)
- T/C (dose: 25.0 mg/kg/injection, schedule: Q01DX001 (ip), vehicle: saline): 99 % of control
- T/C [1]: 99 % of control
- T/C [3]: 100 % of control

Structure (SMILES): CC(=O)OCC1C(C)CCC1C(C)(C)OC(C)=O (centres undefined)
- T/C (dose: 25.0 mg/kg/injection, schedule: Q04DX003 (ip), vehicle: saline): 95 % of control
- T/C (dose: 50.0 mg/kg/injection, schedule: Q04DX003 (ip), vehicle: saline): 109 % of control
- T/C [3]: 107 % of control
- T/C [15]: 98 % of control

Structure (SMILES): C=C(Br)CNC(=O)C(C(F)(F)F)C(F)(F)F
- T/C (dose: 12.5 mg/kg/injection, schedule: Q01DX009 (ip), vehicle: Klucel (hydroxypropylcellulose) (HPC)): 95 % of control
- T/C (dose: 12.5 mg/kg/injection, schedule: Q04DX003 (ip), vehicle: Klucel (hydroxypropylcellulose) (HPC)): 96 % of control
- T/C (dose: 25.0 mg/kg/injection, schedule: Q01DX009 (ip), vehicle: Klucel (hydroxypropylcellulose) (HPC)): 97 % of control
- T/C (dose: 25.0 mg/kg/injection, schedule: Q04DX003 (ip), vehicle: Klucel (hydroxypropylcellulose) (HPC)): 98 % of control
- T/C [16]: 95 % of control
- T/C (dose: 50.0 mg/kg/injection, schedule: Q04DX003 (ip), vehicle: Klucel (hydroxypropylcellulose) (HPC)): 96 % of control

Structure (SMILES): COc1cc(-c2ccc(N)c(OC)c2)ccc1N
- T/C (dose: 62.5 mg/kg/injection, schedule: Q01DX Z (ip), vehicle: saline): 90 % of control
- T/C (dose: 222.0 mg/kg/injection, schedule: Q01DX Z (ip), vehicle: methylcellulose (MC)): 108 % of control
- T/C (dose: 333.0 mg/kg/injection, schedule: Q01DX Z (ip), vehicle: methylcellulose (MC)): 90 % of control

Structure (SMILES): O=C(NC1CCCCC1)Oc1cc(CCl)cc(CCl)c1
- T/C [16]: 112 % of control
- T/C [6]: 112 % of control

Structure (SMILES): CC1=CC(=O)C(C(C)C)C1 (centres undefined)
- T/C [2]: 98 % of control
- T/C [4]: 109 % of control
- T/C [5]: 95 % of control

Structure (SMILES): Cc1cccc2c1NC(c1ccccc1)C(C)S2(=O)=O (centres undefined)
- T/C (dose: 50.0 mg/kg/injection, schedule: Q01DX001 (ip), vehicle: Klucel (hydroxypropylcellulose) (HPC)): 106 % of control
- T/C (dose: 100.0 mg/kg/injection, schedule: Q01DX001 (ip), vehicle: Klucel (hydroxypropylcellulose) (HPC)): 96 % of control
- T/C (dose: 200.0 mg/kg/injection, schedule: Q01DX001 (ip), vehicle: Klucel (hydroxypropylcellulose) (HPC)): 102 % of control
- T/C (dose: 400.0 mg/kg/injection, schedule: Q01DX001 (ip), vehicle: Klucel (hydroxypropylcellulose) (HPC)): 96 % of control
